Data as given in patent EP4663631A1, “POLYMORPH AS PROTEIN KINASE MEK INHIBITOR, AND PREPARATION METHOD THEREFOR AND USE THEREOF” (Shanghai Kechow Pharma, Inc., priority 2023, dated 2024).
Like-named read-outs stand apart in the source and are kept apart here.

Tested on: SK-MEL-2 cells
Experiment: MTT proliferation inhibition, NRAS mutant melanoma cell line
Details: Homo sapiens, SK-MEL-2, 72 h
Experimental: All cells were provided by Beijing Cancer Hospital. Human melanoma cell line SK-MEL-2 (NRAS Q61R) was cultured with MEM supplemented with 10%FBS and penicillin streptomycin in an incubator at 37 °C and 5% carbon dioxide.
When the confluence of the cultured cells reached more than 80%, the adherent cells were digested with trypsin and the cell precipitate was collected by centrifugation, counted, and 90 µL of the cell suspension was seeded in a 96-well plate at the appropriate density. […] Each concentration was set up three multiple Wells, a total of 9 concentration points. The Wells added with the same volume of 5% DMSO were used as control, and the final concentration of DMSO was 0.5%. After 3 days of drug treatment, the cell viability was detected by MTT, and 10 µL MTT was added to each well and incubated in the incubator for another 4 hours. After the supernatant was discarded and 150 µL DMSO was added to dissolve the crystal, and the absorbance at 490 nm was detected by microplate reader. The above experiments were repeated three times. The dose-effect curve was made and IC50 was calculated by GraphPad Prism 8 software.

## Cn1cnc2c(F)c(Nc3ccc(Br)cc3F)c(C(=O)NOCCO)cc21 [MEK162]
read-out: IC5o(nM) 1st
  IC50: 74.8 nM
read-out: IC5o(nM) 2nd
  IC50: 68.3 nM
read-out: IC5o(nM) 3rd
  IC50: 222 nM
read-out: Mean value (nM)
  IC50: 122 nM
